# Test results reported in patent publication US20230398130A1, “METHODS AND COMPOSITIONS FOR DIFFERENTIATING STEM CELLS” (Massachusetts Institute of Technology, priority 2020, published 2023).
# Entries after “also recorded” stand apart in the source; their conditions may differ.
# Legend:
# organoid line = experiment: Validation and dose optimization of the FDA library hits: lysozyme secretion normalized to ATP abundance; assay type: cell-based; conditions: for lysozyme secretion normalized to ATP: 80 nM, different organoid line; for lysozyme secretion compared with KPT-330: in vitro validation, 80-320 nM
# Method: Applicants next validated the initial screening results by the lysozyme secretion assays at four doses from 80 nM to 10 μM. To evaluate the cell-line dependent effect, Applicants utilized a different organoid line, derived from a different animal. DAPT-treated samples were prepared as positive controls, the same as in the screen. Applicants measured ATP abundance simultaneously as a surrogate of cell number and used it for normalizing lysozyme values. […] To further optimize the dose of each drug, Applicants treated with the three compounds at narrower dose range (80-320 nM) and KPT-330, previously identified PC inducer, for comparison.
# [1] = test system: ENR-cultured 3D-embedded organoid; experiment: 384 well-based 3D-embedded organoid screening (ENR, 6 days, FDA approved drug library, 10 μM): Cch-induced lysozyme secretion; assay type: cell-based, murine
# Excerpt: Leveraging their experience in 2.5D culture organoid screening (Mead, et al., 2020 High-throughput organoid screening enables engineering of intestinal epithelial composition. bioRxiv 2020.04.27.063727; Example 2 and 5), Applicants optimized multiple parameters such as organoid number and density, Matrigel volume, and compound-induced secretion stimulation to detect secreted lysozyme from ENR-cultured 3D-embedded organoid. […] The scheme is shown in FIG. 31; briefly, (1) prepare small organoid fragments by mechanical disruption and culture in ENRCV media for 4 days to grow stem cell-rich organoid, (2) replace media to conventional organoid growth media (ENR) add compounds, and culture for 6 days in total, (3) measure Cch-induced lysozyme secretion and ATP abundance. Based on multiple condition examination results (see FIG. 32 as an example), Applicants concluded that 20 organoids/well and 7 μL Matrigel mixture/well is the reasonable culture condition for 384 well-based screening. Additionally, a Notch signaling inhibitor, DAPT, can be used as a positive control, and stimulating by carbachol helps broaden the window between negative and positive control samples (FIG. 32). Utilizing this newly established platform, Applicants performed 384 well-based high-throughput chemical compound screening, aiming for further identification of PC inducers. […] Applicants prepared duplicates for each sample to increase the reliability and chose a single dose point of drugs (10 μM) to execute the initial screening readily and efficiently while planning to analyze precise dose-responsiveness in the following validation step.
# Applicants analyzed all the data by Python 3 as follows. Log 2 transformed lysozyme-derived fluorescent values were calculated; violin plots of negative and positive controls (FIG. 33) and histograms of samples were shown with respect to each assay plate (FIG. 34). […] To evaluate the compound effects, robust Z-scores were calculated based on the negative controls in each plate, and all results were concatenated. […]
# Paneth cells [2] = experiment: Immunofluorescent imaging of organoids: LYZ+ cells per organoid area; assay type: cell-based, murine; conditions: 160 nM KPT-8602, ENR+CD 3 days
# Method: Immunofluorescent imaging. For immunofluorescence staining of organoids, intestinal organoids in Matrigel were fixed with 4% paraformaldehyde, then transferred to centrifuge tube. After washing with PBS, the isolated organoids were permeabilized with 1% Triton X followed by incubation with blocking buffer (1% BSA+3% Donkey Serum+0.2% Triton X in PBS) at RT. The organoids were then stained with primary antibodies and fluorescent dye-labeled secondary antibodies as well as with DAPI. Slides were covered with […]® Mounting Media (VECTOR). The following primary and secondary antibodies were used for the staining: rabbit anti-Lysozyme (1:1000, Thermo Fisher Scientific), rat anti-E-cadherin (1:1000, Thermo Fisher Scientific), Alexa Fluor 488 and 568 secondary antibodies (1:1000, Invitrogen). Images were acquired with a confocal laser scanning microscope (Nikon Eclipse 90i). For the analysis of Lysozyme+ cells per organoid area, the number of counted Lysozyme+ cells were normalized to measured organoid surface area. Image J was used for the data analysis.
# intestinal organoids = experiment: Population RNA-sequencing of organoids; assay type: cell-based, murine; conditions: ENR+CV, ENR+CD or ENR organoids
# Method: Population RNA-sequencing. Population RNA-seq was performed using a derivative of the Smart-Seq2 protocol for single cells. In brief, organoid media was aspirated and RLT+BME (Qiagen) was added to each well, and plate shaken for 30 minutes to fully lyse. Lysate was aliquoted into 4 identical fractions and stored at −80° C. until reverse transcription. RNA lysate was thawed and cleaned with a 2.2×SPRI ratio using Agencourt RNAClean XP beads (Beckman Coulter, A63987). RNA-seq was performed on a bulk population of […] using Smart-Seq2 chemistry, starting with a 2.2×SPRI ratio cleanup. After oligo-dT priming, Maxima H Minus Reverse Transcriptase (ThermoFisher EP0753) was used to synthesize cDNA with an elongation step at 52° C. before PCR amplification (15 cycles for tissue, 18 cycles for sorted basal cells) using KAPA HiFi PCR Mastermix (Kapa Biosystems KK2602). Sequencing libraries were prepared using the Nextera XT DNA tagmentation kit (Illumina FC-131-1096) with 250 pg input for each sample. Libraries were pooled post-Nextera and cleaned using Agencourt AMPure SPRI beads with successive 0.7× and 0.8× ratio SPRIs and sequenced with an Illumina 75 Cycle NextSeq500/550v2 kit (Illumina FC-404-2005) with loading density at 2.2 pM, with paired end 35 cycle read structure. Samples were sequenced at an average read depth of 8.44 million reads per sample and a total of 96 samples.
# Organoid samples were aligned to the Mm10 genome and transcriptome using STAR and RSEM. […] For module scoring with the in vivo Paneth and enteroendocrine cell-defining genes, Applicants used previously published gene sets and computed persample module scores through the Seurat package.
# Paneth cells [3] = experiment: Flow cytometry of 3D-cultured intestinal organoids (ENR+CD, 6 days): Paneth cell fraction (lysozyme-positive, CD24-mid); assay type: cell-based, murine; conditions: 160 nM KPT-8602, ENR+CD 6 days
# Method: Flow cytometry analysis (3D culture). ISC-enriched organoids cultured in 3D Matrigel with ENRCV media were passaged to 24-well plate in 3D Matrigel with ENRCV. At day zero, media were replaced to ENRCD with or without indicated compounds, and media were replaced every other day. […] Flow cytometry was performed using an LSR Fortessa (BD; Koch Institute Flow Cytometry Core at MIT). The data were analyzed using FlowJo v10 software.
# Single live cells were selected by several gating strategies and Paneth cells were identified as lysozyme-high, CD24-mid, side scatter-high (SSC-high) (FIG. 27E). […] To evaluate whether the culture media supplements C and D may alter the effects of the 6 hits, Applicants also performed lysozyme assay in the canonical ENR culture condition in 3-D (because Paneth cells exist in an immature state within ENR, Applicants were unable to robustly quantify Paneth cell number via flow cytometry).
# (§1) Flow cytometry. ISC-enriched organoids in 3D Matrigel culture were passaged to a 48-well plate and induced differentiation for 6 days by ENR+CD media containing DMSO or each drug indicated in the figures. DMSO- or drug-containing media were changed every other day. […] After vigorous pipetting and incubation at 37° C. for 15 min, the cell solution was diluted twice with basal media and centrifuged at 300 rcf for 3 min. […] The cell solution was centrifuged again at 300 rcf for 3 min at 4° C. to pellet the cells. […] Cells were centrifuged again for 3 min at 300 rcf and blocked with staining buffer (FACS buffer containing 0.5% Tween20 (Sigma, P2287)) for 15 min at RT in the dark. […] Flow cytometry was performed using an LSR Fortessa (BD; Koch Institute Flow Cytometry Core at MIT). Flow cytometry data were analyzed using FlowJo X v10.6.1 software.
# Live Paneth cells were identified as LYZ-high, CD24-mid, side scatter-high (SSC-high) (FIG. 50F).
# as §1, with “organoids in 3-D Matrigel culture” for “organoids in 3D Matrigel culture”, “to a 24- or 48-well plate” for “to a 48-well plate”
# lysozyme (LYZ) = experiment: Western blotting of lysozyme in 3D-cultured intestinal organoids; assay type: cell-based, murine; conditions: organoids cultured 6 days in ENR+CV, ENR+CD or ENR
# Excerpt: Western blotting. ISC-enriched organoids cultured in 3D Matrigel with ENRCV media were passaged to 24-well plate in 3D Matrigel with ENRCV. At day zero, media were replaced to ENR or ENRCD with or without indicated compounds, and media were replaced every other day. At day six, cells were harvested from Matrigel by mechanical disruption and suspended in basal media. Cell pellets were lysed with Pierce© IP lysis buffer (ThermoFisher, 87787) containing Halt™ Protease Inhibitor Cocktail, EDTA-Free (ThermoFisher, 87785) after 3-minute centrifuge at 300×g at 4° C. Cell extracts were resolved by NuPAGE© SDS-PAGE Gel system (ThermoFisher) and electroblotted onto polyvinylidene difluoride membranes using Criterion™ Blotter (Biorad). The membranes were blocked with 2% Blotting-Grade Blocker (Biorad, 1706404) in TBS-T (50 mM Tris-HCl, 150 mM NaCl, and 0.1% Tween 20, pH 8.0) and then probed with appropriate antibodies. Detection was performed using ECL Select™ Western Blotting Detection Reagent (Amersham, 45-000-999) and ImageQuant LAS4000 (GE Healthcare).
# Western blotting. Organoid-containing gel was homogenized in basal medium and centrifuged at 300 rcf for 3 min. Organoid pellet was lysed with ice-cold Pierce IP Lysis Buffer (Thermo Fisher Scientific, #87787) containing Halt Protease Inhibitor Cocktail, EDTA-Free (Thermo Fisher Scientific, #87785) and incubated on ice for 20 min. The lysate was centrifuged at 17,000 rcf for 10 min, and the supernatant was combined with NuPAGE LDS Sample Buffer (Thermo Fisher Scientific, NP0007). Protein concentration was determined by Pierce 660 nm Protein Assay (Thermo Fisher Scientific, #22660) and normalized to the lowest concentration among each sample set. […] Chemiluminescent signals were detected by LAS4000 (GE Healthcare) using Amersham ECL Select Western Blotting Detection Reagent (GE Healthcare, #45-000-999), and total protein signals were obtained by Odyssey Imaging System (LI-COR Biosciences) using REVERT Total Protein Stain Kit (LI-COR Biosciences, #926-11010).
SMILES,lysozyme secretion normalized to ATP (organoid line),lysozyme secretion compared with KPT-330 (organoid line),effect on Cch-induced lysozyme secretion (hit identification) [1],proportion of Paneth cells (IF imaging) (Paneth cells [2]),"secretory cell identity (Paneth, goblet, EEC) from bulk transcripts (intestinal organoids)",Paneth cell proportion in organoids (Paneth cells [3]),LYZ abundance per unit protein (Western blotting) (lysozyme (LYZ))
"Nc1ncn([C@H]2C[C@H](O)[C@@H](CO)O2)c(=O)n1 [Decitabine, 5-aza-2′-deoxycytidine]",effects were validated,outperformed KPT-330,identified as Paneth cell activators,–,–,–,–
Nc1nc2nc[nH]c2c(=S)[nH]1 [Thioguanine],effects were validated,outperformed KPT-330,identified as Paneth cell activators,–,–,–,–
C=C1/C(=C\C=C2/CCC[C@]3(C)[C@@H]([C@H](C)/C=C/[C@@H](O)C4CC4)CC[C@@H]23)C[C@@H](O)C[C@@H]1O [Calcipotriene],effects were validated,outperformed KPT-330,identified as Paneth cell activators,–,–,–,–
NC(=O)/C(=C/n1cnc(-c2cc(C(F)(F)F)cc(C(F)(F)F)c2)n1)c1cncnc1 [KPT-8602],–,–,–,increasing the proportion of Paneth cells,"increase secretory cells (Paneth, goblet, and EEC)",statistically significant increases in Paneth cell representation; also recorded: increased the proportion of PC; also recorded: increasing the proportion of Paneth cells,appreciably increase LYZ abundance
